These results are taken from patent publication US12642768B2, “Lipid nanoparticles” (Beijing Jitai Life Sciences Ltd, priority 2022, dated 2026).

The first series can be described thus: Encapsulation efficiency by Quant-it RiboGreen RNA Assay. Conditions: LNP 50:38.5:10:1.5, N/P 6, luciferase mRNA. In kind it is physicochemical. The protocol:
(§1) Lipid nanoparticles were prepared by (1) dissolving and mixing ionizable lipid compounds, cholesterol, phospholipids and polyethylene glycolated lipids in ethanol at (molar percentages) 50%, 38.5%, 10% and 1.5%, respectively; (2) dissolving the mRNA active ingredient in 25 mM sodium acetate solution (pH=4.5); (3) using an automated high-throughput microfluidic system to mix the organic phase containing the lipid mixture and the aqueous phase containing the mRNA component in the flow ratio range of 1:1 to 1:4 at a mixing speed of 10 mL/min to 18 mL/min; (4) the prepared lipid nanoparticles (N/P ratio of 6) were diluted with phosphate buffer solution and the nanoparticle solutions were ultrafiltered to the original preparation volume using ultrafiltration tubes (purchased from Millipore) with a cut-off molecular weight of 30 kDa; and (5) the obtained nanoparticles were filtered through a sterile 0.2 μm filter membrane and then stored in a sealed glass vial at low temperature.
The particle size and particle size dispersity index (PDI) of the prepared lipid nanoparticles were measured using a Zetasizer Pro (purchased from Malvern Instruments Ltd) and a DynaPro NanoStar (purchased from Wyatt) dynamic light scattering instrument. […] This parameter was measured by the method of Quant-it™ RiboGreen RNA Assay (purchased from Invitrogen). […]
On to `CCCCC/C=C\C/C=C\CCCCCCCCC(CCCCCCCC/C=C\C/C=C\CCCCC)OC(=O)CCCN(C)C` [DLin-MC3-DMA, reference compound], for which the “Encapsulation efficiency (%)” value was 95.62%.
The same measure, in the same setting: the same measure for `CCCCCCCCCSC(=O)C(C)(C)CCCCCC(CCCCCC(C)(C)C(=O)OCC#CCCC(CCCC)CCCC)OC(=O)CCCN(C)C` (stereo not drawn) [Compound 119]: 86.92%.

Another series in a line: Particle size and PDI of lipid nanoparticles by dynamic light scattering. Type of series: physicochemical. Conditions: LNP 50:38.5:10:1.5, N/P 6, luciferase mRNA. Here is the method:
as §1
The particle size and particle size dispersity index (PDI) of the prepared lipid nanoparticles were measured using a Zetasizer Pro (purchased from Malvern Instruments Ltd) and a DynaPro NanoStar (purchased from Wyatt) dynamic light scattering instrument. The degree of RNA encapsulation by lipid nanoparticles was characterized by the Encapsulation Efficiency %, which reflects the degree of binding of lipid nanoparticles to RNA fragments. This parameter was measured by the method of Quant-it™ RiboGreen RNA Assay (purchased from Invitrogen). Lipid nanoparticle samples were diluted in TE buffer (10 mM Tris-HCl, 1 mM EDTA, pH=7.5). A portion of the sample solution was removed, to which 0.5% Triton (Triton X-100) was added, and then allowed to stand at 37° C. for 30 minutes. Immediately after the addition of RIBOGREEN® reaction solution, the fluorescence values were read on a Varioskan LUX multifunctional microplate reader (purchased from Thermofisher) at 485 nm for absorption and 528 nm for emission to give the encapsulation efficiency values.
Regarding `CCCCCCCCCOC(=O)C(C)(C)CCCCCC(CCCCCC(C)(C)C(=O)OCCCCCCCCC)OC(=O)C1CCN(C(C)C)CC1` [Compound 103], the “Particle size dispersity (PDI)” value turned out to be 0.04.
On the same count and under the same terms, the same measure for `CCCCCCCCCOC(=O)C(C)(C)CCCCCC(CCCCCC(C)(C)C(=O)OCC#CC(CCCCCC)CCCCCC)OC(=O)CCCN(C)C` (stereo not drawn) [Compound 118]: 0.07; for `CCCCCCCC(CCCCCCC)COC(=O)CCC(C)(C)CCCC(CCCC(C)(C)CCC(=O)OCC(CCCCCCC)CCCCCCC)OC(=O)CCCN(C)C` [Compound 129]: 0.06.
The same measure, in the same setting: for `CCCCCCCCCOC(=O)C(C)(C)CCCCCCC(CCCCCCC(C)(C)C(=O)OCC(CCCCC)CCCCCCC)OC(=O)CCCN(C)C` (stereo not drawn) [Compound 125] the value was 0.07; for `CCCCCCCCCSC(=O)C(C)(C)CCCCCC(CCCCCC(C)(C)C(=O)SCCCCCCCCC)OC(=O)CC1CCN(C)CC1` [Compound 108], 0.05.
Still for that read-out and setting: the same measure for `CCCCC/C=C\C/C=C\CCCCCCCCC(CCCCCCCC/C=C\C/C=C\CCCCC)OC(=O)CCCN(C)C` [DLin-MC3-DMA, reference compound]: 0.04; for `CCCCCCCCCOC(=O)CC(C)(C)CCCCC(CCCCC(C)(C)CC(=O)OCCCCCCCCC)OC(=O)CCCN(C)C` [Compound 97]: 0.25.
As for `CCCCCCCCOC(=O)C(C)(C)CCCCCC(CCCCCC(C)(C)C(=O)OCCCCCCCC)OC(=O)C1CCN(C(C)C)CC1` [Compound 101], the “Particle size dispersity (PDI)” value came out at 0.06.
As for `CCCCCCCCCOC(=O)C(C)(C)CCCCC(CCCCC(C)(C)C(=O)OCC(CCCCC)CCCCCCC)OC(=O)CCCN(C)C` (stereo not drawn) [Compound 122], the “Particle size dispersity (PDI)” value is on record as 0.07.
Turning to `CCCCCCC(CCCCCC)CCOC(=O)CCC(C)(C)CCCC(CCCC(C)(C)CCC(=O)OCCC(CCCCCC)CCCCCC)OC(=O)CCCN(C)C` [Compound 128], the “Particle size dispersity (PDI)” value is reported as 0.05.
Same read-out and setting: the same measure for `CCCCCCCCCOC(=O)C(C)(C)CCCCCC(CCCCCC(C)(C)C(=O)OCCCCCCCCC)OC(=O)C1CCN(C)CC1` [Compound 102]: 0.03; for `CCCCC(CC#CCOC(=O)C(C)(C)CCCCCC(CCCCCC(C)(C)C(=O)OCC#CCC(CCCC)CCCC)OC(=O)CCCN(C)C)CCCC` [Compound 117]: 0.06; for `CCCCCCC/C=C\COC(=O)CC(C)(C)CCCCC(CCCCC(C)(C)CC(=O)OCC(CCCCC)CCCCCCC)OC(=O)CCCN(C)C` (stereo not drawn) [Compound 98]: 0.13.
The same measure, in the same setting: the same measure for `CCCCCCCCCCOC(=O)C(C)(C)CCCCC(CCCCC(C)(C)C(=O)OCC(CCCCC)CCCCCCC)OC(=O)CCCN(C)C` (stereo not drawn) [Compound 123]: 0.05; for `CCCCCCCCCSC(=O)C(C)(C)CCCCCC(CCCCCC(C)(C)C(=O)SCCCCCCCCC)OC(=O)C1CCN(C)CC1` [Compound 106]: 0.05; for `CCCCCCCCCOC(=O)CCCCCCC(CCCCCCC(=O)OCC(CCCCC)CCCCCCC)OC(=O)CCCN(C)C` (stereo not drawn) [D2, reference compound]: 0.20.
On the same count and under the same terms, the same measure for `CCCCCCCCCOC(=O)C(C)(C)CCCCCC(CCCCCC(C)(C)C(=O)OCC(CCCCC)CCCCCCC)OC(=O)CC1CCN(CCO)CC1` (stereo not drawn) [Compound 114]: 0.04; for `CCCCCCCCCOC(=O)CCCCCCC(CCCCCCC(=O)OCCCCCCCCC)OC(=O)CCCN(C)C` [D1, reference compound]: 0.18; for `CCCCCCCCCOC(=O)C(C)(C)CCCCCC(CCCCCC(C)(C)C(=O)OCCCCCCCCC)OC(=O)CC1CCN(CCO)CC1` [Compound 113]: 0.03.
As to `CCCCCCCCOC(=O)C(C)(C)CCCCCC(CCCCCC(C)(C)C(=O)OCCCCCCCC)OC(=O)C1CCN(C)CC1` [Compound 100], the “Particle size dispersity (PDI)” value was 0.07.
On the same count and under the same terms, the same measure for `CCCCCCCCCSC(=O)C(C)(C)CCCCCC(CCCCCC(C)(C)C(=O)SCCCCCCCCC)OC(=O)CC1CCN(CC)CC1` [Compound 109]: 0.06; for `CCCCCCCCCCOC(=O)C(C)(C)CCCCCC(CCCCCC(C)(C)C(=O)OCCCCCCCCCC)OC(=O)CN1CCOCC1` [Compound 91]: 0.05.
In the case of `CCCCCCCCCCSC(=O)C(C)(C)CCCCCC(CCCCCC(C)(C)C(=O)OCCCCCCCCC)OC(=O)CCCN(C)C` (stereo not drawn) [Compound 40], the “Particle size dispersity (PDI)” value is reported as 0.05.
On the same count and under the same terms, for `CCCCCCCC#CCOC(=O)C(C)(C)CCCCCC(CCCCCC(C)(C)C(=O)OCCCC(CCCCC)CCCCC)OC(=O)CCCN(C)C` (stereo not drawn) [Compound 115] the value was 0.04.
On to `CCCCCCC#CCOC(=O)C(C)(C)CCCCCC(CCCCCC(C)(C)C(=O)OCCCCCCCCC)OC(=O)CCCN(C)C` (stereo not drawn) [Compound 42], for which the “Particle size dispersity (PDI)” value is 0.07.
Still for that read-out and setting: the same measure for `CCCCCCCCCCOC(=O)C(C)(C)CCCCCC(CCCCCC(C)(C)C(=O)OCCCCCCCCCC)OC(=O)C1CCN(C)CC1` [Compound 99]: 0.05; for `CCCCCCCCCSC(=O)C(C)(C)CCCCCC(CCCCCC(C)(C)C(=O)SCCCCCCCCC)OC(=O)CC1CCN(CCO)CC1` [Compound 110]: 0.01.
As for `CCCCCCCCCOC(=O)C(C)(C)CCCCCCC(CCCCCCC(C)(C)C(=O)OCC(CCCCC)CCCCCCC)OC(=O)CCCCN(C)C` (stereo not drawn) [Compound 126], the “Particle size dispersity (PDI)” value turned out to be 0.06.
Same read-out and setting: for `CC(C)CCCCCCCOC(=O)CCC(C)(C)CCCC(CCCC(C)(C)CCC(=O)OCCCCCCCC(C)C)OC(=O)CCCN(C)C` [Compound 127] the value was 0.05; for `CCCCCCCCCCSC(=O)C(C)(C)CCCCCC(CCCCCC(C)(C)C(=O)SCCCCCCCCCC)OC(=O)C1CCN(C(C)C)CC1` [Compound 105], 0.05; for `CCCCCCCC#CCOC(=O)C(C)(C)CCCCCC(CCCCCC(C)(C)C(=O)OCC(CCCCC)CCCCCCC)OC(=O)CCCN(C)C` (stereo not drawn) [Compound 116], 0.05.
Same read-out and setting: for `CCCCCCCCCSC(=O)C(C)(C)CCCCCC(CCCCCC(C)(C)C(=O)SCCCCCCCCC)OC(=O)C1CCN(C(C)C)CC1` [Compound 107] the value was 0.05; for `CCCCCCCCCCOC(=O)C(C)(C)CCCCCC(CCCCCC(C)(C)C(=O)OCCCCCCCCCC)OC(=O)CCN1CCCC1` [Compound 92], 0.05.
On the same count and under the same terms, for `CCCCCCCCCCOC(=O)C(C)(C)CCCCCC(CCCCCC(C)(C)C(=O)OCCCCCCCCCC)OC(=O)CCN1CCOCC1` [Compound 90] the value was 0.05; for `CCCCCCCCCOC(=O)C(C)(C)CCCCCC(CCCCCC(C)(C)C(=O)OCC(CCCCC)CCCCCCC)OC(=O)CC1CCN(C)CC1` (stereo not drawn) [Compound 111], 0.06.
Take `CCCCCCCCCOC(=O)C(C)(C)CCCCCC(CCCCCC(C)(C)C(=O)SCCCCCCCCC)OC(=O)CCCN(C)C` (stereo not drawn) [Compound 41]: the “Particle size dispersity (PDI)” value is 0.05.
Regarding `CCCCCCCCCCSC(=O)C(C)(C)CCCCCC(CCCCCC(C)(C)C(=O)SCCCCCCCCCC)OC(=O)C1CCN(C)CC1` [Compound 104], the “Particle size dispersity (PDI)” value was found to be 0.06.
Same read-out and setting: for `CCCCCCCCCSC(=O)C(C)(C)CCCCCC(CCCCCC(C)(C)C(=O)OCC#CCCC(CCCC)CCCC)OC(=O)CCCN(C)C` (stereo not drawn) [Compound 119] the value was 0.05; for `CCCCCCCCCSC(=O)C(C)(C)CCCCCC(CCCCCC(C)(C)C(=O)OCC(CCCCC)CCCCCCC)OC(=O)CC1CCN(C)CC1` (stereo not drawn) [Compound 112], 0.08.

Still in this series, the particulars now being: LNP ionizable lipid:cholesterol:DSPC:DMG-PEG2000 50:38.5:10:1.5, N/P 6, luciferase mRNA.
On to `CCCCCCCCCSC(=O)C(C)(C)CCCCCC(CCCCCC(C)(C)C(=O)OCC#CCCC(CCCC)CCCC)OC(=O)CCCN(C)C` (stereo not drawn) [Compound 119], for which the “Particle size (nm)” value came out at 80.98 nm.
